Laboratory results as given in patent publication US20100197628A1, “METHODS OF TREATING PSYCHIATRIC, SUBSTANCE ABUSE, AND OTHER DISORDERS USING COMBINATIONS CONTAINING OMEGA-3 FATTY ACIDS” (priority 2003, published 2010).
Entries after “also recorded” stand apart in the source; their conditions may differ. Structures can show the parent of a compound that is named as a salt.

Tests used:
male Sprague-Dawley rats = test: Forced swim test (FST): latency to become immobile and behavioral sampling; type: in vivo, rat; settings: re-test (day 2), DMI 10 mg/kg, FLX 20 mg/kg; for latency to become immobile: 3 IP injections, CIT 5.0 mg/kg; for occurrences of climbing (behavioral sampling) / occurrences of swimming (behavioral sampling) / occurrences of immobility (behavioral sampling): CIT 5.0 mg/kg IP
Experimental: The behavioral effects of the combination of uridine and omega-3 fatty acids were also evaluated in rats using the forced swim test (FST). This assay identifies in rodents treatments that have antidepressant effects in humans (Porsolt et al. Nature 266:730-732 1977; Carlezon et al. Biol. Psychiatry 51:882-889, 2002). Uridine was administered using systemic injection while omega-3 fatty acids were administered by supplementation within the diet for various periods of time (3, 10, or 30 days). The effects of uridine in rats maintained on the omega-3 fatty acid-enriched diet were also evaluated to determine if these effects were additive. […] The efficacy of each treatment in the FST was evaluated using two separate scoring methods: latency to become immobile, a simple and rapid method that identifies agents with antidepressant effects ([…] et al. J Neurosci 21:7397-7403 2001), and behavioral sampling, a more complex method that differentiates antidepressant drugs according to their pharmacological mechanisms (Detke et al. Psychopharmacology 121:66-72 1995). Finally, treatments with antidepressant-like effects in the FST were evaluated for non-specific effects on activity in an open field, which might complicate interpretation of the data from the swimming studies. Rats: A total of 197 male Sprague-Dawley rats (Charles River Laboratories, Boston Mass.) were used in these studies. The rats were housed in groups of four and weighed 325-375 gm at the time of behavioral testing. Rats were maintained on a 12 h light (0700-1900 h)-12 h dark cycle with free access to food and water except during testing. Experiments were conducted in accordance with the 1996 Guide for the Care and Use of Laboratory Animals (NIH) and McLean Hospital policies. Drugs: Dosages of desipramine HCl (DMI), fluoxetine HCl (FLX), citalopram HBr (CIT), and uridine (URI) were administered in a distilled water vehicle (VEH) at a volume of 1 cc/kg. All drugs were purchased from RBI-Sigma (St. Louis, Mo.) except CIT, which was a gift of Forest Laboratories (New York, N.Y.). […] The diets were equivalent in overall fat, protein, carbohydrate, and caloric content. Forced Swim Test (FST): One hundred-sixty seven rats were used in the FST studies, which were conducted as described previously (Carlezon et al. Biol. Psychiatry 51:882-889, 2002) with minor modifications. The FST is a two-day procedure in which rats swim under conditions in which escape is not possible. On the first day, rats are placed in clear, 65 cm tall-25 cm diameter cylinders filled to 48 cm with 25° C. water. The rats initially struggle to escape from the water, but eventually they adopt a posture of immobility in which they make only the movements necessary to keep their heads above water. After 15 min of forced swimming, the rats are removed from the water, dried with towels, and placed in a warmed enclosure for 30 min. The cylinders are emptied and cleaned between rats. When the rats are re-tested 24 hours later under identical conditions in 5 min sessions, immobility is increased. Treatment with standard antidepressant drugs within the 24 hr period between the first exposure to forced swimming and re-testing can attenuate facilitated immobility, an effect correlated with antidepressant efficacy in humans (Porsolt et al. Nature 266:730-732 1977; Detke et al. Psychopharmacology 121:66-72 1995, Carlezon et al. Biol. Psychiatry 51:882-889, 2002). Rats tested with DMI, FLX, CIT, or URI received 3 separate intraperitoneal (IP) injections of drug (or VEH), at 1 hr, 19 hr, and 23 hr after the first exposure to forced swimming. This commonly used regimen is sensitive to the antidepressant-like effects of many standard agents (Porsolt et al. Nature 266:730-732 1977; Detke et al. Psychopharmacology 121:66-72 1995; Carlezon et al. Biol. Psychiatry 51:882-889, 2002). […] There were 7-12 rats per treatment condition, and separate rats were used for each treatment regimen. […]

depressed subjects = test: 17-item Hamilton Depression Rating Scale (HDRS), eight weeks of treatment; type: in vivo, human
Experimental: In a second study, twelve depressed subjects (mean age 40) received 500 mg of an oral formulation of CDP-choline twice daily for eight weeks.

children with ADHD [1] = test: Computerized continuous performance task (CPT), measure of attention; type: in vivo, human
Experimental: A new fMRI procedure (T2 relaxometry or “T2-RT”) was developed to indirectly assess blood volume in the striatum (caudate and putamen) of boys 6-12 years of age under steady-state conditions. Six healthy control boys (10.2±1.5 yr) and eleven boys diagnosed with ADHD (9.3±1.6 yr) served as subjects in the study to examine fMRI differences between unmedicated healthy controls and ADHD children on either placebo or the highest dose of methylphenidate. […] Activity and attention were evaluated in unmedicated healthy controls using the same procedure as children with ADHD, and fMRI followed within the same time frame.
(§1) Highly accurate laboratory-based measures of activity and attention were obtained by having the children perform a computerized vigilance test while an infrared motion analysis system captured and recorded movements (see Methods). […]
Assessment of Activity and Attention. […] In brief, children sat in front of a computer and were evaluated using a simple GO/NO−GO CPT in which the subject responds to visual presentation of a target and withholds response to a non-target stimuli that appear in the center of the screen at a fixed 2 second […] interval (Greenberg et al., Psychopharmacol. Bull. 23: 279-282, 1987). […]
Statistical Analyses. Differences between groups was assessed using ANCOVA with age as a covariate. […]

children with ADHD [2] = test: Infrared motion analysis of activity during the attention test; type: in vivo, human
From the text: A new fMRI procedure (T2 relaxometry or “T2-RT”) was developed to indirectly assess blood volume in the striatum (caudate and putamen) of boys 6-12 years of age under steady-state conditions. Six healthy control boys (10.2±1.5 yr) and eleven boys diagnosed with ADHD (9.3±1.6 yr) served as subjects in the study to examine fMRI differences between unmedicated healthy controls and ADHD children on either placebo or the highest dose of methylphenidate. The healthy controls were screened using structured diagnostic interview (K-SADS-E; Orvaschel, H. & Puig-Antich, J., The schedule for affective disorders and schizophrenia for school-age children-epidemiologic version (Kiddie-SADS-E), University of Pittsburgh, Pittsburgh, Pa., 1987), were free of any major psychiatric disorder, and had no more than 3 out of 9 possible symptoms of inattention or hyperactivity-impulsivity by DSM-IV criteria. Children with ADHD were included if they met criteria for ADHD on structured diagnostic interview, and had at least 6 of 9 symptoms of inattention or hyperactivity-impulsivity. Children with ADHD took part in a triple blind (parent, child, rater), randomized, placebo-controlled study of effects of methylphenidate (0, 0.5, 0.8, 1.5 mg/kg in divided dose) on activity, attention, and fMRI. […] Activity and attention were evaluated in unmedicated healthy controls using the same procedure as children with ADHD, and fMRI followed within the same time frame.
as §1
Assessment of Activity and Attention. […] In brief, children sat in front of a computer and were evaluated using a simple GO/NO−GO CPT in which the subject responds to visual presentation of a target and withholds response to a non-target stimuli that appear in the center of the screen at a fixed 2 second […] interval (Greenberg et al., Psychopharmacol. Bull. 23: 279-282, 1987). […] Three 5-minute test sessions were recorded during a 30-minute test period while an infrared motion analysis system (Qualisys, Glastonbury, Conn.) recorded the movement of small reflective markers attached to the head, shoulder, elbow, and back of the child. […] Results were analyzed using the concept of “micro-events.” A new micro-event begins when the marker moves 1.0 millimeters or more from its most recent resting location, and is defined by its position and duration. The spatial scaling exponent is a measure of the spatial complexity of the movement path, and is calculated from the logarithmic rate of information decay at progressively lower levels of resolution. […]

[3] = test system: putamen, caudate and thalamus of children with ADHD; test: T2 relaxometry fMRI (T2-RT), indirect measure of regional blood volume; type: in vivo, human; settings: ongoing treatment
From the text: A new fMRI procedure (T2 relaxometry or “T2-RT”) was developed to indirectly assess blood volume in the striatum (caudate and putamen) of boys 6-12 years of age under steady-state conditions. Six healthy control boys (10.2±1.5 yr) and eleven boys diagnosed with ADHD (9.3±1.6 yr) served as subjects in the study to examine fMRI differences between unmedicated healthy controls and ADHD children on either placebo or the highest dose of methylphenidate. The healthy controls were screened using structured diagnostic interview (K-SADS-E; Orvaschel, H. & Puig-Antich, J., The schedule for affective disorders and schizophrenia for school-age children-epidemiologic version (Kiddie-SADS-E), University of Pittsburgh, Pittsburgh, Pa., 1987), were free of any major psychiatric disorder, and had no more than 3 out of 9 possible symptoms of inattention or hyperactivity-impulsivity by DSM-IV criteria. Children with ADHD were included if they met criteria for ADHD on structured diagnostic interview, and had at least 6 of 9 symptoms of inattention or hyperactivity-impulsivity. Children with ADHD took part in a triple blind (parent, child, rater), randomized, placebo-controlled study of effects of methylphenidate (0, 0.5, 0.8, 1.5 mg/kg in divided dose) on activity, attention, and fMRI. Children with ADHD were treated continuously for one week with placebo or a specific dose of methylphenidate and at the end of the week were tested for drug efficacy using objective measures of attention and activity and fMRI (See Methods) within 1-3 hours of their afternoon dose. The time between dose and testing was held constant for each subject throughout the four treatment conditions. Activity and attention were evaluated in unmedicated healthy controls using the same procedure as children with ADHD, and fMRI followed within the same time frame.
T2 relaxometry, a novel fMRI procedure, was used to derive steady state blood flow measures and to test for enduring medication effects. […] T2 relaxometry, like BOLD, hinges on the paramagnetic properties of deoxyhemoglobin. […]

[4] = eight weeks, CDP-choline 500 mg twice daily, fluoxetine 20 mg/day
[5] = children with ADHD, methylphenidate vs placebo, P<0.05

CN(C)CCCC1(c2ccc(F)cc2)OCc2cc(C#N)ccc21 (stereo not shown) [CIT, citalopram HBr]
latency to become immobile (male Sprague-Dawley rats; HBr): increased latencies to become immobile
occurrences of climbing (behavioral sampling) (male Sprague-Dawley rats): without affecting climbing
occurrences of swimming (behavioral sampling) (male Sprague-Dawley rats): increased swimming
occurrences of immobility (behavioral sampling) (male Sprague-Dawley rats; HBr): reduced immobility; also recorded: decreased immobility

CNCCCN1c2ccccc2CCc2ccccc21 [DMI, desipramine HCl]
latency to become immobile (male Sprague-Dawley rats; HCl): increased latencies to become immobile
occurrences of climbing (behavioral sampling) (male Sprague-Dawley rats; HCl): increased climbing; also recorded: increases in occurrences of climbing
occurrences of immobility (behavioral sampling) (male Sprague-Dawley rats; HCl): reduced immobility; also recorded: decreases in occurrences of immobility
occurrences of swimming (behavioral sampling) (male Sprague-Dawley rats; HCl): without affecting occurrences of swimming

CNCCC(Oc1ccc(C(F)(F)F)cc1)c1ccccc1 (stereo not shown) [fluoxetine, fluoxetine HCl]
mean 17-item HDRS score with eight weeks of treatment (depressed subjects; CDP-choline 500 mg oral twice daily, fluoxetine open label 20 mg/day, p<0.0001): 11±6
mean 17-item HDRS score before treatment (depressed subjects; baseline, CDP-choline 12 subjects, fluoxetine 41 subjects): 21±4
complete responses (subjects/total) (depressed subjects; [4]): 17/41
complete responses, share of subjects (depressed subjects; [4]): 41%
latency to become immobile (male Sprague-Dawley rats; listed as FLX, HCl): increased latencies to become immobile
occurrences of climbing (behavioral sampling) (male Sprague-Dawley rats): without affecting climbing
occurrences of swimming (behavioral sampling) (male Sprague-Dawley rats): increased swimming
occurrences of immobility (behavioral sampling) (male Sprague-Dawley rats; listed as FLX, HCl): reduced immobility; also recorded: decreased immobility

COC(=O)C(c1ccccc1)C1CCCCN1 (stereo not shown) [methylphenidate]
response variability (S.D.) of response latency (children with ADHD [1]; children with ADHD on methylphenidate (placebo 242 msec), P<0.005): 149 ms
performance accuracy on the CPT (children with ADHD [1]; children with ADHD, methylphenidate vs placebo, one week of treatment, P<0.05): enhancing
increase in spatial complexity (children with ADHD [2]; 5 ADHD children not objectively hyperactive on placebo, p>0.6): < 8%
increase in spatial complexity (children with ADHD [2]; 6 subjects objectively hyperactive on placebo, P<0.02): 52.6%
complexity of the movement pattern (children with ADHD [2]; [5]): increasing
increase in time spent immobile (children with ADHD [2]; [5]): 126%
T2-RT in right caudate ([3]; P=0.08): trend-level difference
T2-RT in thalamus ([3]; P>0.7): failed to exert significant effects
T2-RT in right and left putamen ([3]; response tied to unmedicated activity state, P=0.006): significantly altered
